Among the data in US11034658B2, “Pyridinyl pyrazoles as modulators of RORγT” (Janssen Pharmaceutica NV, priority 2018, dated 2021) are IC50, inhibition and Kd values, retold here.

Assay [1] concerns the target full-length human RORγt (GAL4-DBD-RORγt fusion) in HEK293T cells (Homo sapiens (Human), UniProt P51449). Kind of assay: RORγt (full-length human) reporter assay, conditions A or B. It is filed as cell-based. To be noted: for IC50: HEK293T cells, read-out: RORγt (FL) Reporter Assay A or B, IC50; for inhibition at 3 µM: 3 μM compound concentration (footnote *). The method, then: RORγt (Full-Length Human) Reporter Assay:
(§1) HEK293T cells were plated at 35,000 per well in 96-well plate in medium of DMEM with 10% FBS. […] After overnight (16 to 20 hours) incubation, media were removed and cells were lysed with 50 μL Glo Lysis Buffer (Promega) for 10-15 minutes followed by 10 minute incubation with 50 μL Dual Glo reagent (Promega) at room temperature. Firefly luciferase luminescence was measured using a BMG Pherastar plate reader. To each well, 50 μL Stop and Glo reagent was added and incubated for 10 minutes at room temperature. Renilla luminescence was measured using a BMG Pherastar plate reader. To calculate the effect of compounds on RORγt activity, firefly values were normalized against values of DMSO only and values of reference compound at saturating concentration, then further normalized against Renilla signals. IC50s were generated by plotting final Renilla normalized data against compound concentration and percent inhibition was calculated against DMSO control.
as §1, with “at 8750 cells” for “at 35,000”, “in 384-well” for “in 96-well”, “with 20” for “with 50”, “well, 20” for “well, 50”

The target in assay [2] is human RORγt ligand binding domain (RORγt LBD) (Homo sapiens (Human), UniProt P51449). The experiment in a line: RORγt ThermoFluor assay. An excerpt:
ThermoFluor® is a fluorescence based assay that estimates ligand binding affinities by measuring the effect of a ligand on protein thermal stability (Pantoliano, M. W., Petrella, E. C., Kwasnoski, J. D., Lobanov, V. S., Myslik, J., Graf, E., Carver, T., Asel, E., Springer, B. A., Lane, P., and Salemme, F. R. (2001) High-density miniaturized thermal shift assays as a general strategy for drug discovery. J Biomol Screen 6, 429-40, and Matulis, D., Kranz, J. K., Salemme, F. R., and Todd, M. J. (2005) Thermodynamic stability of carbonic anhydrase: measurements of binding affinity and stoichiometry using ThermoFluor. Biochemistry 44, 5258-66). This approach is applicable to a wide variety of systems, and rigorous in theoretical interpretation through quantitation of equilibrium binding constants (KD).
The shift in the melting point described as a ΔTm is proportional to the concentration and affinity of the ligand. The compound potency may be compared as a rank order of either values at a single compound concentration or in terms of KD values, estimated from concentration response curves.
RORγt ThermoFluor® Assay Construct
For the RORγt construct used in the ThermoFluor® assay, numbering for the nucleotide sequences was based on the reference sequence for human RORγt, transcript variant 2, NCBI Accession: NM 001001523.1 (SEQ ID NO:1). Nucleotides 850-1635 (SEQ ID NO:2) coding for the wild type human RORγt ligand binding domain (RORγt LBD) were cloned into the pHIS1 vector, a modified pET E. coli expression vector (Accelagen, San Diego), containing an in-frame N-terminal His-tag and a TurboTEV protease cleavage site (ENLYFQG, SEQ ID NO:3) upstream of the cloned insert sequence. The amino acid sequence for the RORγt construct used in the Thermofluor® assay is shown as SEQ ID NO:4.
ThermoFluor® experiments were carried out using instruments owned by Janssen Research and Development, L.L.C. through its acquisition of 3-Dimensional Pharmaceuticals, Inc. 1,8-ANS (Invitrogen) was used as a fluorescent dye. Protein and compound solutions are dispensed into black 384-well polypropylene PCR microplates (Abgene) and overlayed with silicone oil (1 μL, Fluka, type DC 200) to prevent evaporation.
Bar-coded assay plates are robotically loaded onto a thermostatically controlled PCR-type thermal block and then heated at a typical ramp-rate of 1° C./min for all experiments. Fluorescence was measured by continuous illumination with UV light (Hamamatsu LC6) supplied via fiber optic and filtered through a band-pass filter (380-400 nm; >6 OD cutoff). Fluorescence emission of the entire 384-well plate was detected by measuring light intensity using a CCD camera (Sensys, Roper Scientific) filtered to detect 500±25 nm, resulting in simultaneous and independent readings of all 384 wells. Images were collected at each temperature, and the sum of the pixel intensity in a given area of the assay plate was recorded versus temperature. Reference wells contained RORγt without compounds, and the assay conditions were as follows:
Project compounds were arranged in a pre-dosed mother plate (Greiner Bio-one) wherein compounds are serially diluted in 100% DMSO by 1:2 from a high concentration of 10 mM over 12 columns within a series (column 12 is a reference well containing DMSO, no compound). The compounds were robotically dispensed directly into assay plates (1×=46 nL) using a Hummingbird capillary liquid handling instrument (Digilab). Following compound dispense, protein and dye in buffer was added to achieve the final assay volume of 3 μL, followed by 1 μL of silicone oil.
The binding affinity was estimated as described previously (Matulis, D., Kranz, J. K., Salemme, F. R., and Todd, M. J. (2005) Thermodynamic stability of carbonic anhydrase: measurements of binding affinity and stoichiometry using ThermoFluor®. Biochemistry 44, 5258-66) using the following thermodynamic parameters of protein unfolding:
Reference RORγt Tm: 47.8° C.

Where [3] appears, read: HEK-293T, read-out: RORγt (FL) Reporter Assay A or B, % inhibition.

Structures are written as SMILES.

full-length human RORγt (GAL4-DBD-RORγt fusion) in HEK293T cells, sequence (P51449 other isoform, or with tags, fused parts or gaps): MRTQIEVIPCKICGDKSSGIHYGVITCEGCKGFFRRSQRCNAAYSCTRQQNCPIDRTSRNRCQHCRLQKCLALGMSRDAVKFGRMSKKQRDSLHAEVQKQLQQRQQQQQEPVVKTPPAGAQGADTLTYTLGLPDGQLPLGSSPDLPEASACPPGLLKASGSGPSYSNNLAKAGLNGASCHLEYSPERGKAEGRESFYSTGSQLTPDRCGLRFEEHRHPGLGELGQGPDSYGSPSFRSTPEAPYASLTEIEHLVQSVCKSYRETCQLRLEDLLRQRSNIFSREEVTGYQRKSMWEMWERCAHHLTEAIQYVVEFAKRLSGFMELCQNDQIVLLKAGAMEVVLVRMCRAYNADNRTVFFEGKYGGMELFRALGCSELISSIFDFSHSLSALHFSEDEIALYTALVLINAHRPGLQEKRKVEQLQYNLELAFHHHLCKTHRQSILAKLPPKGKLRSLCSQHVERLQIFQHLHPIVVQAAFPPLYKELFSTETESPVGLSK
human RORγt ligand binding domain (RORγt LBD), sequence (P51449 other isoform, or with tags, fused parts or gaps): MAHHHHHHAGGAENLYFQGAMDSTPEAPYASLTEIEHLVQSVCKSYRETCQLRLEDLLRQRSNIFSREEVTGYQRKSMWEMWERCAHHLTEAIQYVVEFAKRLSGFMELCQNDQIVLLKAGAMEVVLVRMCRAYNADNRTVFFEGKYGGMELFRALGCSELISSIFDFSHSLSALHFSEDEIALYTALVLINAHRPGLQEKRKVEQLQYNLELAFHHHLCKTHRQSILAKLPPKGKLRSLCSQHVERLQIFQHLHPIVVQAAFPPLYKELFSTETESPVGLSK

In the case of `CCn1nc(C(=O)NC[C@@]2(O)CC[C@H](S(C)(=O)=O)C[C@@H]2O)c(C)c1-c1ccc(CC(C)(C)C(F)(F)F)nc1OC(F)F` (relative stereo) [Example 51, 5-(2-(Difluoromethoxy)-6-(3,3,3-trifluoro-2,2-dimethylpropyl)pyridin-3-yl)-N-(((1S*,2S*,4S*)-1,2-dihydroxy-4-(methylsulfonyl)cyclohexyl)methyl)-1-ethyl-4-methyl-1H-pyrazole-3-carboxamide], the half-maximal inhibitory concentration (IC50) in assay [1] is 35 nM. Also, the inhibition at 3 µM in assay [1] (setting [3]) was determined as 97%. The molecule further displayed a Kd in assay [2] of 3.2 nM.
The corresponding values for `CCn1nc(C(=O)NC[C@H]2CC[C@H](S(C)(=O)=O)CC2)c(Cl)c1-c1cnc(C[C@H](C)C(F)(F)F)cc1OC(F)F` (single isomer, unassigned) [Example 14, 4-Chloro-5-(4-(difluoromethoxy)-6-((S*)-3,3,3-trifluoro-2-methylpropyl)pyridin-3-yl)-1-ethyl-N-(((1r,4S)-4-(methylsulfonyl)cyclohexyl)methyl)-1H-pyrazole-3-carboxamide] are 36 nM, 82% and 3.6 nM.
The corresponding values for `CCn1nc(C(=O)NC[C@]2(O)CC[C@@H](S(C)(=O)=O)CC2)c(Cl)c1-c1cnc(C[C@H](C)C(F)(F)F)cc1OC(F)F` (single isomer, unassigned) [Example 15, 4-Chloro-5-(4-(difluoromethoxy)-6-((S*)-3,3,3-trifluoro-2-methylpropyl)pyridin-3-yl)-1-ethyl-N-(((1s,4R)-1-hydroxy-4-(methylsulfonyl)cyclohexyl)methyl)-1H-pyrazole-3-carboxamide] are 98 nM, 71% and 12 nM.
The corresponding values for `CCn1nc(C(=O)NC[C@H]2CC[C@H](S(C)(=O)=O)CC2)c(C)c1-c1cnc(C[C@H](C)C(F)(F)F)cc1OC(F)F` (single isomer, unassigned) [Example 16, 5-(4-(Difluoromethoxy)-6-((S*)-3,3,3-trifluoro-2-methylpropyl)pyridin-3-yl)-1-ethyl-4-methyl-N-(((1r,4S)-4-(methylsulfonyl)cyclohexyl)methyl)-1H-pyrazole-3-carboxamide] are 16 nM, 101% and 5.2 nM.
Take `CCn1nc(C(=O)NC[C@H]2CC[C@H](S(C)(=O)=O)CC2)c(Cl)c1-c1cnc(C[C@@H](C)C(F)(F)F)cc1OC(F)F` (single isomer, unassigned) [Example 17, 4-Chloro-5-(4-(difluoromethoxy)-6-((R*)-3,3,3-trifluoro-2-methylpropyl)pyridin-3-yl)-1-ethyl-N-(((1r,4R)-4-(methylsulfonyl)cyclohexyl)methyl)-1H-pyrazole-3-carboxamide]: the IC50 in assay [1] is 34 nM. In assay [1] (setting [3]), the inhibition at 3 µM was found to be 125%. For the same molecule, in assay [2], the affinity, expressed as Kd, was 4.1 nM.
The corresponding values for `CCn1nc(C(=O)NC[C@]2(O)CC[C@@H](S(C)(=O)=O)CC2)c(Cl)c1-c1cnc(C[C@@H](C)C(F)(F)F)cc1OC(F)F` (single isomer, unassigned) [Example 18, 4-Chloro-5-(4-(difluoromethoxy)-6-((R*)-3,3,3-trifluoro-2-methylpropyl)pyridin-3-yl)-1-ethyl-N-(((1s,4S)-1-hydroxy-4-(methylsulfonyl)cyclohexyl)methyl)-1H-pyrazole-3-carboxamide] are 140 nM, 100% and 18 nM.
As for `CCn1nc(C(=O)NC[C@H]2CC[C@H](S(C)(=O)=O)CC2)c(C)c1-c1cnc(C[C@@H](C)C(F)(F)F)cc1OC(F)F` (single isomer, unassigned) [Example 19, 5-(4-(Difluoromethoxy)-6-((R*)-3,3,3-trifluoro-2-methylpropyl)pyridin-3-yl)-1-ethyl-4-methyl-N-(((1r,4R)-4-(methylsulfonyl)cyclohexyl)methyl)-1H-pyrazole-3-carboxamide], in assay [1], the IC50 worked out at 40 nM. In addition, the inhibition at 3 µM in assay [1] (setting [3]) is 105%. The molecule further came in with a dissociation constant Kd in assay [2] of 17 nM.
In the same order, the values of `CCn1nc(C(=O)NC[C@]2(O)CC[C@@H](S(C)(=O)=O)CC2)c(C)c1-c1cnc(C[C@@H](C)C(F)(F)F)cc1OC(F)F` (single isomer, unassigned) [Example 20, 5-(4-(Difluoromethoxy)-6-((R*)-3,3,3-trifluoro-2-methylpropyl)pyridin-3-yl)-1-ethyl-N-(((1s,4S)-1-hydroxy-4-(methylsulfonyl)cyclohexyl)methyl)-4-methyl-1H-pyrazole-3-carboxamide] are 99 nM, 123% and 34 nM.
Take `CCn1nc(C(=O)NC[C@H]2CC[C@H](S(C)(=O)=O)CC2)c(Cl)c1-c1cnc(C[C@@H](C)C(F)(F)F)cc1OC` (single isomer, unassigned) [Example 61, 4-Chloro-1-ethyl-5-(4-methoxy-6-((R*)-3,3,3-trifluoro-2-methylpropyl)pyridin-3-yl)-N-((1r,4r)-4-(methylsulfonyl)cyclohexyl)methyl)-1H-pyrazole-3-carboxamide]: the IC50 in assay [1] came to 110 nM. In addition, the inhibition at 2 µM in assay [1] (HEK-293T, 2 μM compound concentration, read-out: RORγt (FL) Reporter Assay A or B, % inhibition) was 87%. For the same molecule, the Kd in assay [2] amounted to 16 nM.
Regarding `CCn1nc(C(=O)NC[C@]2(O)CC[C@@H](S(C)(=O)=O)C[C@H]2O)c(Cl)c1-c1cnc(CC(C)(C)C(F)(F)F)cc1OC(F)F` (stereo in doubt) [Example 3, 4-Chloro-5-(4-(difluoromethoxy)-6-(3,3,3-trifluoro-2,2-dimethylpropyl)pyridin-3-yl)-N-(((1R*,2R*,4R*)-1,2-dihydroxy-4-(methylsulfonyl)cyclohexyl)methyl)-1-ethyl-1H-pyrazole-3-carboxamide], the half-maximal inhibitory concentration (IC50) in assay [1] was 63 nM. Further, the inhibition at 3 µM in assay [1] (setting [3]) came to 105%. The dissociation constant Kd in assay [2] was 8.1 nM.
